Laboratory results published in US5449820A, “Method of preparing high purity 2,6-naphthalene dicarboxylic acid” (Mitsubishi Chemical Corporation, priority 1994, dated 1995).

Experiment: solubility of 2,6-naphthalene dicarboxylic acid with respect to high temperature and high pressure water
Assay type: physicochemical
Conditions: for solubility in water containing 5 wt % of isopropanol: water containing 5 wt % of isopropanol (entrainer)
Experimental: Although the quantity of water for use in the dissolving process differs depending upon the dissolving temperature, the quantity of water must be larger than a quantity (the saturated solubility) in which coarse 2,6-naphthalene dicarboxylic acid can be completely dissolved. In an example case where water containing 5 wt % of isopropanol is used and the dissolving temperature is 300° C., five parts or more by weight of water with respect to one part by weight of coarse 2,6-naphthalene dicarboxylic acid is required. An example of the results of measurements of the solubility of 2,6-naphthalene dicarboxylic acid with respect to high temperature and high pressure water is shown in Table 1.

O=C(O)c1ccc2cc(C(=O)O)ccc2c1 [2,6-naphthalene dicarboxylic acid]
Solubility in water (225 °C, 27 atm): 0.36 wt % | Solubility in water (250 °C, 40 atm): 1.13 wt % | solubility in water containing 5 wt % of isopropanol (250 °C): 4.2 wt % | Solubility in water (275 °C, 60 atm): 3.28 wt % | Solubility in water (300 °C, 86 atm): 8.34 wt % | solubility in water containing 5 wt % of isopropanol (300 °C): 18.0 wt % | Solubility in water (325 °C, 121 atm): 18.6 wt % | Solubility in water (375 °C, 230 atm): 34.2 wt % | Solubility in water (386 °C, 230 atm): 36.7 wt % | solubility with respect to water (dissolved) (about 370 °C, critical temperature for water): ≥ 30 wt %
